Experimental data as given in US20050147608A1, “Novel regulatory mechanisms of NF-kappaB” (Beth Israel Deaconess Medical Center, Inc., priority 2003, published 2005).
Where a SMILES comes first, the peptide text is derived from it. The star is where a group is joined. Cbz = O=C(OCc1ccccc1)*

Columns and labels:
NF-κB = test: NF-κB-Luc gene reporter assay in breast cancer cell lines after Pin1 inhibition; type: cell-based; details: BT20 (ER-negative) and MCF-7 (ER-positive) cells, both cell lines; 48 hrs after transfection
From the text: (C) Inhibition of NF-κB activation and NF-κB DNA binding activity in breast cancer cell lines by downregulation of Pin 1. Two breast cancer cell lines were transfected with Pin1-specific or non-specific siRNA together with a NF-kB-Luc or TK-Luc reporter construct for 48 hrs, followed by assaying luciferase activity and Pin1 protein levels (insets) (C) or assaying NF-κB DNA binding activity by EMSA using NF-κB or OCT1 consensus oligonucleotides (D).
Approximately 60% confluent cells were transfected in triplicate in 12 well dishes with Effectene (Qiagen). Gene reporter assays were performed with Dual-Luciferase reporter assay system (Promega) at 24-36 hr after transfection as described previously (Wulf et al., 2001). pRL-TK (Promega) was used as an internal control for transfection efficiency. All results are expressed as X±SD of independent triplicate cultures. For gene reporter assays in breast cancer cell line, cells were transfected with pSuppressor Neo vector encoding Pin1 specific siRNA (5′-[…]-3′) or non-specific siRNA (5′-[…]-3′) together with Ig-kB luciferase construct and pRL-TK. After 48 hr, cells were lysed and subjected to gene reporter assay.
Given that the NF-κB activation is regulated by a series of phosphorylation events, it was investigated whether Pin1 is involved in this regulation. […]

p65-T254A [1] = test: Protein degradation assay (cycloheximide chase, immunoblot) of p65-T254A in 293T cells; type: cell-based; design: dose or concentration left out as unconfirmed
Experimental: (A, B) Stabilization of p65-T254A by a proteosome inhibitor. 293T cells expressing Xpress-p65-T254A or Xpress-LacZ were treated with cycloheximide and MG-132 ([…]) or the solvent DMSO for the times indicated, followed by immunoblot with anti-Xpress antibody (A), followed by semi-quantification with Imagequant (B). (C) Ubiquitination of p65 in vitro. In vitro translated 35 S-labeled p65 was incubated with ubiquitin in the presence or absence of E1 and UbcH5a for times indicated, followed by separation on SDS-PAGE and autoradiography. (D) Ubiquitination of the GST-p65 fragment B, but A or C. GST-p65 truncation mutants (FIG. 3D) were incubated with HeLa S-100 extracts, ubiquitin, E1 and either UbcH5a or UbcH6 for 3 hrs, followed by GST pulldown and immunoblotting with anti-ubiquitin antibody. (E) Ubiquitination of GST-p65 fragment B via UbcH5a. GST-p65-truncated mutant B was subjected to ubiquitination assay in vitro using different E2 enzymes.
293T cells were transfected with Xpress-tagged p65. A plasmid encoding Xpress-LacZ was used as a transfection control. […] Cells were harvested at each time points, and total lysates were analyzed by immunoblotting with anti-Xpress antibody (Invitrogene). The blots were scanned and semi-quantified by using the software NIH image 1.6.2, as described (Ryo et al., 2001). […]

p65 [2] = test: p65 protein stability in Pin1−/− MEFs; type: cell-based, mouse
From the text: The ability of Pin1 to regulate the protein stability of p65 led to another surprising finding in this study, which is the ubiquitin-mediated proteolysis of p65. Although the ubiquitin-mediated proteolysis of IkBα has been well characterized (Baeuerle and Baltimore, 1996; Ghosh et al., 1998), a similar regulation has not been previously described for NF-kB itself. […] Furthermore, even in Pin1+/+ cells, the point mutation in p65 (T254A) that disrupts its binding to Pin1 converts p65 from a stable into an extremely unstable protein due to rapid nuclear export and subsequent protein degradation.

p65-T254A [3] = test: Co-immunoprecipitation of Pin1 with Xpress-tagged p65-T254A in 293T cells after proteasome inhibition; type: cell-based; details: 20 μM MG-132 for 12 hr
Experimental: (G) Failure of Pin1 to bind p65-T254A. 293T cells were co-transfected with Pin1 and Xpress-tagged p65 or its T254A mutant. After cells were incubated with 20 μM MG-132 for 12 hr, they were subjected to immunoprecipitation analysis with anti-Xpress antibody, followed by immunoblot with anti-p65 or anti-Pin1 antibodies.
(§1) Cells were arrested at the G1/S phase or the mitotic phase, as describe previously. Total cells, 293T or HeLa, were lysed with GST-pulldown buffer (50 mM Hepes pH7.4, 150 mM NaCl, 10% glycerol, 1% Triton-X100, 1.5 mM MgC12, 1 mM EGTA, 100 mM NaF, 1 mM Na3VO4, 1 mM DTT and 0.5 μg/ml Leupeptin, 1.0 μg/ml Pepstatin, 0.2 mM PMSF) and incubated were incubated with 20 μl of agarose beads containing GST-Pin1 or GST at 4° C. for 2 hr, as described previously (Ryo et al., 2001). The precipitated proteins were washed three times with wash buffer containing and subjected to SDS-PAGE. For immunoprecipitation, cells were harvested at 24 hr after transfection and lysed with NP-40 lysis buffer (10 mM Tris HCl pH7.5, 100 mM NaCl, 0.5% NP-40, 1 mM Na3VO4, 0.5 μg/ml Leupeptin, 1.0 μg/ml Pepstatin, 0.2 mM PMSF). Cell lysates were incubated for 1 hr with Protein A/G Sepahrose/mouse IgG complexes.
Three truncation mutants of p65 were generated and subjected them to the GST-pulldown assay. […]

p65 [4] = test: In vivo ubiquitination assay of p65 in HeLa cells (His-ubiquitin, Ni-agarose pulldown); type: cell-based; details: His-tagged ubiquitin, MG-132 for 16 hr
Experimental: (F) Ubiquitination of p65 in vivo. HeLa cells expressing p65, UbcH5a and His-tagged ubiquitin or vector controls were treated with MG-132 or DMSO control for 16 hr, followed by lysis using sonication in a buffer containing 6M urea. Ubiquitin-conjugated proteins were captured with […] beads and subjected to immunoblot with anti-p65 antibody.
To examine which region of the p65 molecule can be ubiquitinated, different GST-p65 fragments (FIG. 3D) were incubated with S100 HeLa cells extracts, ubiquitin, E1 and UbcH5a or UbcH6, and then purified GST-p65 fragments using GST beads, followed by immunoblot with anti-ubiquitin antibodies. Although neither the fragment A nor C was ubiquitinated, fragment B, which contains the Pin1 binding Thr254-pro motif (FIG. 3E), was poly-ubiquitinated with UbcH5a, but not with UbcH6 (FIG. 6D). To examine whether other E2 enzymes could catalyze the ubiquitination of p65 in vitro, we incubated recombinant GST-p65 fragment B with in vitro ubiquitination assay using different E2 enzymes. Out of the 8 E2 enzymes examined, only UbcH5a effectively conjugated multiple ubiquitin molecules into p65 (FIG. 6E). […] However, no ubiquitinated p65 was detected in the absence of His ubiquitin and/or MG-132 (FIG. 6F), indicating the specificity of the in vivo ubiquitination assay.

Pin1 and p65 = test: GST-Pin1 pulldown of Xpress-tagged p65 from 293T cells; type: binding; details: 293T cells treated with TNF-α for 3 hrs vs PBS
Experimental: (D) Enhancement of Pin1 and p65 binding by TNF-α. 293T cells expressing Xpress-tagged p65 were treated with PBS or TNF-αfor 3 hrs, followed by GST-pull down experiment and immunoblot with anti-Xpress antibody.
as §1
Pin1 binds and isomerizes specific pSer/Thr-Pro motifs in certain phosphoproteins. To explore the molecular mechanism of NF-kB activation by Pin1, it was investigated as to whether any components of NF-kB or IkBα are Pin1 substrates. […]

“siRNA: pSuppressor Neo vector encoding Pin1 specific siRNA (5′-GCCACATCACTAACGCCAGC-3′) (expressed from pSuppressor Neo vector)” was tested, and the “transcriptional activity of NF-κB-Luc” value (NF-κB) was “significantly suppressed the transcriptional activity of NF-κB-Luc”.
In the case of `CC(C)C[C@@H](C=O)NC(=O)[C@H](CC(C)C)NC(=O)[C@H](CC(C)C)NC(=O)OCc1ccccc1` [MG-132] (Cbz-Leu-Leu-Leu-aldehyde), the “half-life of p65-T254A protein” value (p65-T254A [1]) was “strikingly prolonged the half-life of p65-T254A protein”, the “stability of p65” value (p65 [2]) was “could be stabilized” and the “stability of p65-T254A” value (p65-T254A [3]) was “p65-T254A was stable”. The “poly-ubiquitination of p65” value (p65 [4]) was “p65 was substantially poly-ubiquitinated”.
In the case of TNF-α, the “increase of Pin1-p65 binding” value (Pin1 and p65) was roughly 3 fold.
